The values below come from patent US20260325490A1, “ORAL FORMULATIONS OF EDARAVONE AND IMPROVED METHOD OF MANUFACTURING THEREOF” (BDR PHARMACEUTICALS INTERNATIONAL PRIVATE LIMITED, priority 2022, published 2026).

For series [1] the following is noted: cited from earlier work.
The nature of series [2]: Chemical stability of Edaravone (hydrolysis, oxidation). It counts as physicochemical. The settings on record: aqueous solution, compared to the powdered form. An excerpt: It may be noted that the efficacy of Edaravone has seen an undisputed success since its inception in the therapeutic category of stroke management. Edaravone per se has wide applicability and has potential to be used for more therapeutic indications. The injectable dosage form has been a limiting factor in case of increased use of this product. Importantly, developing an oral dosage form of Edaravone is a challenging process due to its less soluble and less permeable (BCS Class-IV product) nature. Further, an injectable dosage form has inherent difficulty in terms of its usage post hospitalization. […] The inventors of the present invention during development have noted that it was difficult to stabilize Edaravone.

For series [3] the following is noted: cited from earlier work. This is another data set of the same source.

With `CC1=NN(c2ccccc2)C(=O)C1` [Edaravone, 3-methyl-1-phenyl-2-pyrazolin-5-one], the “Solubility in acetic acid” value in series [1] (acetic acid) is reported as “freely soluble”. Further, the “Solubility in diethyl ether” value in series [1] (diethyl ether) is “slightly soluble”. Also, in series [1] (ethanol), the Solubility in ethanol entry is given as “freely soluble”. The Solubility in methanol result in series [1] (methanol) was “freely soluble”. In series [1] (water), the Solubility in water result is “slightly soluble”. In series [2], the Decomposition by oxidation entry is recorded as “easily decompose by oxidation”. The Lipid permeability result in series [3] is recorded as “lower lipid permeability”. In addition, in series [3] (poor solubility in water and lower lipid permeability), the “Bio-pharmaceutics Classification System (BCS) class” value is “Class IV”.
